In US5468734A, “Prophylactic and remedial preparation for diseases attendant on hyperglycemia, and wholesome food” (Godo Shusei Co., Ltd., priority 1992, dated 1995):
Like-named read-outs stand apart in the source and are kept apart here.

Assays:
[1] = target: T1, sucrase (carbohydrase derived from rabbit small intestine mucous membrane) (Oryctolagus cuniculus, UniProt P07768); assay: Action to inhibit the hydrolytic activity of homogenate prepared from rabbit small intestine mucous membrane: sucrase inhibition; format: biochemical
T1 construct: suspended again in a 10 mM potassium phosphate buffer (pH: 7.0), thereby obtaining a crude enzyme suspension; from tissue; host or cells: rabbit small intestine (title: mucous membrane), homogenate, 60,000×g precipitate
T1 sequence (P07768 1008-1827 limits assumed): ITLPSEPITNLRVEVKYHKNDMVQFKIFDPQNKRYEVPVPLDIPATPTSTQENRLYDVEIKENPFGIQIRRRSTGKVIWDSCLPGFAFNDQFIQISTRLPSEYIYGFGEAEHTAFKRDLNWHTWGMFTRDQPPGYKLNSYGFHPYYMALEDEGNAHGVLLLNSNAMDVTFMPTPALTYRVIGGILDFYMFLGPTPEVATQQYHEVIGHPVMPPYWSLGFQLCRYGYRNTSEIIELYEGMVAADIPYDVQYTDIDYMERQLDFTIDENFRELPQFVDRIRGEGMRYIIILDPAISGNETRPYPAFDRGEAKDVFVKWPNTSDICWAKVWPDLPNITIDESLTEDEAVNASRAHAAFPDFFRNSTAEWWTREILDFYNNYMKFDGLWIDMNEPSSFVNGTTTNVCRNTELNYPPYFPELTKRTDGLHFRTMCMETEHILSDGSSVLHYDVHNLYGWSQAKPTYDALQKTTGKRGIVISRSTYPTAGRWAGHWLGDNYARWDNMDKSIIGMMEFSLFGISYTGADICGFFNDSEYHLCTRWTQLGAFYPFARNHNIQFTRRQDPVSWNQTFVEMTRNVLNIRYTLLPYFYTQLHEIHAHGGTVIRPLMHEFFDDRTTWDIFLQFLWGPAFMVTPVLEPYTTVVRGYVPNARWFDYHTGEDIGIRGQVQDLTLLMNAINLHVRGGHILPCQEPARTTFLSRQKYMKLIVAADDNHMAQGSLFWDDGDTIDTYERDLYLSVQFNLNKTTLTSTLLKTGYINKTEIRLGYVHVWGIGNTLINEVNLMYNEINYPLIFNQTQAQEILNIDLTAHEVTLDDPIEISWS
T1 sequence (P07768 2-1007 partner limits assumed): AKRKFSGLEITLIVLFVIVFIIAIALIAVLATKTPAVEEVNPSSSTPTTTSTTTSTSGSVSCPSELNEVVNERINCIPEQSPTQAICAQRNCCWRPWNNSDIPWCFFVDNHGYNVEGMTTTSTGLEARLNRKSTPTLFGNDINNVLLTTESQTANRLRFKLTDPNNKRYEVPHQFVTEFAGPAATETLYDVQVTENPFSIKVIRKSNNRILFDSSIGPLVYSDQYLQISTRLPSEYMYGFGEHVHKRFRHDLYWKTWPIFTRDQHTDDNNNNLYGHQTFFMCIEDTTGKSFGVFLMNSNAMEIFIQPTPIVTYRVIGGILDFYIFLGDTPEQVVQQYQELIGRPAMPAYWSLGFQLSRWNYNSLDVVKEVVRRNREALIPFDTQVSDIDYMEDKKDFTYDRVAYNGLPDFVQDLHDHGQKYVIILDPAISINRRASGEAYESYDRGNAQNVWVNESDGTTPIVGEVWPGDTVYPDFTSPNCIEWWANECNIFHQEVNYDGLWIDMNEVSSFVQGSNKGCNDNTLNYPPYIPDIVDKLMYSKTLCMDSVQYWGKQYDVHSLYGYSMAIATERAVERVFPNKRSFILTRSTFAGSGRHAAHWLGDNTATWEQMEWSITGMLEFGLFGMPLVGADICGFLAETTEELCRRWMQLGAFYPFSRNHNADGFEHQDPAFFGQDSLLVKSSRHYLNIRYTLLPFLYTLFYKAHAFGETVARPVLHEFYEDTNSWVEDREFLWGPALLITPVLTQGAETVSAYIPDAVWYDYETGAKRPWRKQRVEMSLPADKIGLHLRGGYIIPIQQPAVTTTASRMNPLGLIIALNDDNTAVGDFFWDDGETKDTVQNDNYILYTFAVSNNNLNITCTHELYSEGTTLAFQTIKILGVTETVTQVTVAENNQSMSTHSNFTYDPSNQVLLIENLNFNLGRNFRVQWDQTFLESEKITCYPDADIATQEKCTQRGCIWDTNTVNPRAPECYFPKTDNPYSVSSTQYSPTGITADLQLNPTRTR
Description: (§1) (Action to inhibit the hydrolytic activity of homogenate prepared from rabbit small intestine mucous membrane to carbohydrate)
(§2) A native kind of white rabbits (weight: 3.0-3.5 kg) were sacrificed by exsanguination to take out their small intestines.
(§3) After freezing and thawing the small intestines thus taken out, they were homogenized in a 5 mM EDTA buffer (pH: 7.0) and subjected to centrifugation for 60 minutes at 60,000×g. Precipitate thus formed was collected and suspended again in a 10 mM potassium phosphate buffer (pH: 7.0), thereby obtaining a crude enzyme suspension.
(§4) Sucrose (20 mM) and maltose (20 mM) were used as substrates.
(§5) Each reaction mixture was formulated so as to contain 350 microliters of a 100 mM maleate buffer (pH: 6.8), 100 microliters of a substrate solution, 50 microliters of the crude enzyme suspension and 50 microliters of a test solution. Substances to be tested were separately dissolved in a maleate buffer (pH: 6.8) before use.
(§6) Respective reactions were conducted for 15 minutes at 37° C.

[2] = system: maltase (carbohydrase derived from rabbit small intestine mucous membrane); assay: Action to inhibit the hydrolytic activity of homogenate prepared from rabbit small intestine mucous membrane: maltase inhibition; format: biochemical; conditions: for Maltase inhibition rate: substrate maltose 20 mM, pH 6.8, 37° C., 15 minutes
Description: as §1, §2, §3, §4, §5, §6

rise in blood sugar = assay: Action to depress the rise in blood sugar after sucrose loading to mice; format: in vivo, ICR male mice; conditions: for Rise in blood sugar / action to depress the rise in blood sugar due to sucrose loading (in words): sucrose 1 g/kg; for Rise in blood sugar: dose 100 mg/kg oral, average ± standard error; for action to depress the rise in blood sugar due to sucrose loading (in words): orally 25, 50 and 100 mg/kg (L-arabinose, D-xylose) or 100 mg/kg (others); for action to depress the rise in blood sugar for sucrose or starch loading (in words): summary statement
Description: (Action to depress the rise in blood sugar after carbohydrate loading)
ICR male mice (weight 30-35 g) were used in proportions of 5 mice per group.
After causing the mice to fast, sucrose or starch was orally administered in a proportion of 1 g/kg to the mice of each group, and at the same time substances to be tested were orally given to mice of their corresponding groups.
Blood was collected from the retroorbital sinus of each mouse before carbohydrate loading and upon elapsed times of 30 minutes, 60 minutes and 120 minutes after the loading to determine the concentration of glucose in the blood plasma by the glucose oxidase method.

[3] = 0.25 h, 50 mg/dl, substrate sucrose 20 mM, pH 6.8, 37° C., 15 minutes, read-out: Sucrase inhibition rate
[4] = 0.25 h, 100 mg/dl, substrate sucrose 20 mM, pH 6.8, 37° C., 15 minutes, read-out: Sucrase inhibition rate
[5] = 0.25 h, 200 mg/dl, substrate sucrose 20 mM, pH 6.8, 37° C., 15 minutes, read-out: Sucrase inhibition rate
[6] = 0.25 h, pH 6.8, read-out: Sucrase inhibition rate

SMILES | sucrase-inhibiting action (in words) [1] | inhibition at 2000 µg/mL [1, 5] [%] | maltase-inhibiting action (in words) [2] | Maltase inhibition rate ([2]; 200 mg/dl) [%] | other results
O=CC[C@@H](O)[C@@H](O)[C@H](O)CO [2-Deoxy-D-galactose, 2-deoxy-D-galactose] | strong sucrase-inhibiting action | 34.8 | strong sucrase-inhibiting action and maltase-inhibiting action | 32.8 | inhibition at 250 µg/mL ([1]; 0.25 h, 25 mg/dl, substrate sucrose 20 mM, pH 6.8, 37° C., 15 minutes, read-out: Sucrase inhibition rate): 13.7%; inhibition at 500 µg/mL [1, 3]: 15.5%; inhibition at 1000 µg/mL [1, 4]: 21.6%; Maltase inhibition rate ([2]; 25 mg/dl): 11.2%; Maltase inhibition rate ([2]; 50 mg/dl): 13.4%; Maltase inhibition rate ([2]; 100 mg/dl): 19.3%; Rise in blood sugar (rise in blood sugar; after 30 min.): 61.1 Δmg/dl; Rise in blood sugar (rise in blood sugar; after 60 min.): 50.8 Δmg/dl; Rise in blood sugar (rise in blood sugar; after 120 min.): 26.2 Δmg/dl; action to depress the rise in blood sugar due to sucrose loading (in words) (rise in blood sugar): significantly depressed; action to depress the rise in blood sugar for sucrose or starch loading (in words) (rise in blood sugar): effective action to depress the rise in blood sugar
OC[C@H]1O[C@@H](O[C@H]2[C@H](O)[C@@H](O)C(O)O[C@@H]2CO)[C@H](O)[C@@H](O)[C@@H]1O (some centres unmarked) [Cellobiose, reference compound] |  | -0.4 |  | 2.8 | 
O=C[C@@H](O)[C@H](O)[C@H](O)CO [D-Arabinose, D-arabinose, reference compound] | no or little inhibiting action | 11.7 | no or little inhibiting action | 7.8 | inhibition at 500 µg/mL [1, 3]: 4%; inhibition at 1000 µg/mL [1, 4]: 6.8%
C[C@@H](O)[C@H](O)[C@H](O)[C@@H](O)C=O [D-Fucose, D-fucose, reference compound] | no or little inhibiting action | 8.7 | no or little inhibiting action | 4.1 | 
N[C@H]1C(O)O[C@H](CO)[C@H](O)[C@@H]1O (stereo partly drawn) [D-Galactosamine, D-galactosamine, reference compound] | no or little inhibiting action | -6.5 | no or little inhibiting action | -4.5 | 
O=C[C@H](O)[C@@H](O)[C@@H](O)[C@H](O)CO [D-Galactose, D-galactose, reference compound] | no or little inhibiting action |  | no or little inhibiting action | 15.3 | inhibition at 500 µg/mL [1, 6]: -0.6%; inhibition at 1000 µg/mL [1, 6]: -0.9%; inhibition at 2000 µg/mL [1, 6]: 6.4%; inhibition at 4000 µg/mL [1, 6]: 20.2%; Maltase inhibition rate ([2]; 50 mg/dl): -0.8%; Maltase inhibition rate ([2]; 100 mg/dl): 13.9%; Maltase inhibition rate ([2]; 400 mg/dl): 11.8%
O=C[C@@H](O)[C@@H](O)[C@H](O)CO [D-Lyxose, D-lyxose] | inhibiting actions second to these | 23.4 | inhibiting actions second to these | 22.3 | Rise in blood sugar (rise in blood sugar; after 30 min.): 62.7 Δmg/dl; Rise in blood sugar (rise in blood sugar; after 60 min.): 57.0 Δmg/dl; action to depress the rise in blood sugar due to sucrose loading (in words) (rise in blood sugar): significantly depressed; action to depress the rise in blood sugar for sucrose or starch loading (in words) (rise in blood sugar): effective action to depress the rise in blood sugar
O=C[C@@H](O)[C@@H](O)[C@H](O)[C@H](O)CO [D-Mannose, D-mannose, reference compound] | no or little inhibiting action |  | no or little inhibiting action | 25.1 | inhibition at 500 µg/mL [1, 6]: -0.7%; inhibition at 1000 µg/mL [1, 6]: 12.9%; inhibition at 2000 µg/mL [1, 6]: 19.3%; inhibition at 4000 µg/mL [1, 6]: 27.8%; Maltase inhibition rate ([2]; 50 mg/dl): 3.2%; Maltase inhibition rate ([2]; 100 mg/dl): 10.6%; Maltase inhibition rate ([2]; 400 mg/dl): 30.4%
O=C[C@@H](O)[C@@H](O)[C@@H](O)[C@H](O)CO [D-Talose, D-talose, reference compound] | no or little inhibiting action |  | no or little inhibiting action | 5.3 | inhibition at 2000 µg/mL [1, 6]: 5.4%
OC[C@H]1O[C@@H](OC[C@H]2OC(O)[C@H](O)[C@@H](O)[C@@H]2O)[C@H](O)[C@@H](O)[C@@H]1O (some centres unmarked) [Gentiobiose, reference compound] |  | -2.4 |  | 1.9 | 
O=C[C@H](O)[C@H](O)[C@@H](O)CO [L-Lyxose, L-lyxose, reference compound] | no or little inhibiting action | -0.2 | no or little inhibiting action | 10.0 | 
O=C(CO)[C@@H](O)[C@H](O)[C@@H](O)CO [L-Sorbose, L-sorbose, reference compound] | no or little inhibiting action | 5.1 | no or little inhibiting action | 7.5 | 
O=C(CO)[C@H](O)[C@@H](O)CO [L-Xylulose, L-xylulose, reference compound] | no or little inhibiting action | 10.8 | no or little inhibiting action | 6.4 | 
OC[C@H]1O[C@@H](O[C@H]2[C@H](O)[C@H](O)C(O)O[C@@H]2CO)[C@@H](O)[C@@H](O)[C@@H]1O (some centres unmarked) [reference compound] |  | 0.9 |  | 0.6 | 
OC[C@H]1O[C@@H](O[C@H]2[C@H](O)[C@H](O)[C@H](O[C@H]3[C@H](O)[C@H](O)C(O)O[C@@H]3CO)O[C@@H]2CO)[C@@H](O)[C@@H](O)[C@@H]1O (some centres unmarked) [reference compound] |  | 2 |  | 1.3 | 
OC[C@H]1O[C@@H](O[C@H]2[C@H](O)[C@H](O)[C@H](O[C@H]3[C@H](O)[C@H](O)[C@H](O[C@H]4[C@H](O)[C@H](O)C(O)O[C@@H]4CO)O[C@@H]3CO)O[C@@H]2CO)[C@@H](O)[C@@H](O)[C@@H]1O (some centres unmarked) [reference compound] |  | -0.3 |  | 0.7 | 
OC[C@H]1O[C@@H](O[C@H]2[C@H](O)[C@H](O)[C@H](O[C@H]3[C@H](O)[C@H](O)[C@H](O[C@H]4[C@H](O)[C@H](O)[C@H](O[C@H]5[C@H](O)[C@H](O)C(O)O[C@@H]5CO)O[C@@H]4CO)O[C@@H]3CO)O[C@@H]2CO)[C@@H](O)[C@@H](O)[C@@H]1O (some centres unmarked) [reference compound] |  | 4 |  | 3.5 | 
OC1OC[C@@H](O[C@@H]2OC[C@@H](O)[C@H](O)[C@H]2O)[C@H](O)[C@H]1O (some centres unmarked) [reference compound] |  | 10.7 |  | 5.5 | 
OC1OC[C@@H](O[C@@H]2OC[C@@H](O[C@@H]3OC[C@@H](O)[C@H](O)[C@H]3O)[C@H](O)[C@H]2O)[C@H](O)[C@H]1O (some centres unmarked) [reference compound] |  | 2.7 |  | 3.6 | 
OC1OC[C@@H](O[C@@H]2OC[C@@H](O[C@@H]3OC[C@@H](O[C@@H]4OC[C@@H](O)[C@H](O)[C@H]4O)[C@H](O)[C@H]3O)[C@H](O)[C@H]2O)[C@H](O)[C@H]1O (some centres unmarked) [reference compound] |  | 3.5 |  | 2.0 | 
OC1OC[C@@H](O[C@@H]2OC[C@@H](O[C@@H]3OC[C@@H](O[C@@H]4OC[C@@H](O[C@@H]5OC[C@@H](O)[C@H](O)[C@H]5O)[C@H](O)[C@H]4O)[C@H](O)[C@H]3O)[C@H](O)[C@H]2O)[C@H](O)[C@H]1O (some centres unmarked) [reference compound] |  | -0.5 |  | 1.5 | 
OC1OC[C@@H](O[C@@H]2OC[C@@H](O[C@@H]3OC[C@@H](O[C@@H]4OC[C@@H](O[C@@H]5OC[C@@H](O[C@@H]6OC[C@@H](O)[C@H](O)[C@H]6O)[C@H](O)[C@H]5O)[C@H](O)[C@H]4O)[C@H](O)[C@H]3O)[C@H](O)[C@H]2O)[C@H](O)[C@H]1O (some centres unmarked) [reference compound] |  | -7.9 |  | -5.1 | 
